Measured values reported in ChEMBL document CHEMBL1121518, “Congeners of the beta conformer of dopamine derived from cis- and trans-octahydrobenzo[f]quinoline and trans-octahydrobenzo[g]quinoline” (1980).

Experiments:
[1] = organism: Felis catus; assay: Tested for inhibition of cardioaccelerator nerves of cat; format: functional; settings: read-out: ID50 (the source's name)
[2] = organism: Canis familiaris; assay: Tested for mean blood pressure in dog after ID50 dose; format: functional, Canis lupus familiaris
[3] = tested on: Canis familiaris; assay: Tested for mean blood pressure in dog before drug administration; format: functional, Canis lupus familiaris
[4] = organism: Canis familiaris; assay: Tested for mean heart rate in dog after ID50 dose; format: functional, Canis lupus familiaris
[5] = tested on: Canis familiaris; assay: Tested for mean heart rate in dog before drug administration; format: functional, Canis lupus familiaris
[6] = molecular target: T1, Alpha-1A adrenergic receptor (Homo sapiens) (UniProt P35348); assay: Inhibitory activity against adrenergic alpha-receptor transmission, its effect being blocked by phentolamine; settings: Felis catus
T1 sequence (whole entry): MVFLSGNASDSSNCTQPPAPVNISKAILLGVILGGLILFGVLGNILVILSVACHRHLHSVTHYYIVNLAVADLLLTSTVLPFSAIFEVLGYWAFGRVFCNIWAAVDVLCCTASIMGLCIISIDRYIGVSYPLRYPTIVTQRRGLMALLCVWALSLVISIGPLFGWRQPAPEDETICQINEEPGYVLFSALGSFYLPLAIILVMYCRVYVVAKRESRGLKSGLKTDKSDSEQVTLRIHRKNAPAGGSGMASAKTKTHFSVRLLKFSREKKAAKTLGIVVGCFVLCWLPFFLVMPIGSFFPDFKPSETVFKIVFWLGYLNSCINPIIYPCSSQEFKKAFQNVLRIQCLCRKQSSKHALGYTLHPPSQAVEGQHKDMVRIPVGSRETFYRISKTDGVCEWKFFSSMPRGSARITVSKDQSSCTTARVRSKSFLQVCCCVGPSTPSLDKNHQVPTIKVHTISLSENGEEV

| Structure (SMILES) | ED50 [1] | Activity [2] | Activity [3] | Activity [4] | Activity [5] | Activity [6] |
| --- | --- | --- | --- | --- | --- | --- |
| Br.CCN1CCCC2c3cc(O)c(O)cc3CCC21 (stereo unspecified) | 0.45 µmol/kg | 89.8 mmHg | 115 mmHg | 162.8 beats min-1 | 183 beats min-1 |  |
| Br.CN1CCCC2c3cc(O)c(O)cc3CCC21 (cis isomer) | 0.31 µmol/kg | 95.4 mmHg | 125.8 mmHg | 158.6 beats min-1 | 174 beats min-1 | 2 mg/kg |
| Br.CCCN1CCCC2c3cc(O)c(O)cc3CCC21 (stereo unspecified) | 0.26 µmol/kg | 82.9 mmHg | 114.9 mmHg | 165 beats min-1 | 175.7 beats min-1 |  |
| CN1CCc2cccc3c2[C@H]1Cc1ccc(O)c(O)c1-3 [APOMORPHINE] | 0.022 µmol/kg | 92 mmHg | 109.5 mmHg | 128.9 beats min-1 | 139.2 beats min-1 |  |
| Br.CCCN1CCC[C@@H]2c3cc(O)c(O)cc3CC[C@H]21 | 0.0013 µmol/kg | 73.6 mmHg | 116.4 mmHg | 156.9 beats min-1 | 178 beats min-1 |  |
| Br.CCN1CCC[C@@H]2c3cc(O)c(O)cc3CC[C@H]21 | 0.0009 µmol/kg | 90.9 mmHg | 115.4 mmHg | 161.3 beats min-1 | 176.9 beats min-1 |  |
| Br.CN1CCC[C@@H]2c3cc(O)c(O)cc3CC[C@H]21 | 0.0055 µmol/kg | 95.6 mmHg | 116.7 mmHg | 160.9 beats min-1 | 175.4 beats min-1 |  |
